The results in this text go back to patent US7166621B2, “Pyridyloxyalkanoic acid amide derivatives useful as fungicides” (priority 2001, dated 2007).

One data set concerns Phytophthora infestans. The experiment in a line: whole plant or invertebrate. In kind it is in vivo. Particulars: in Solanum lycopersicum, foliar, 96 h, read-out: control of Phytophthora infestans.
The next data set deals with Plasmopara viticola. As to the kind of experiment: Leaf disk assay, downy mildew of grapevine, preventive fungicidal activity. In kind it is in vivo. Particulars: foliar, 168 h.
Where [1] appears, read: grapevine leaf disks, preventive, assessed seven days after inoculation.

A value given as a limit tells only on which side of the number the result lay.

On to `CCC#CC(C)(C)NC(=O)C(CC)Oc1cncc(C(=O)O)c1` (centres unmarked), for which the melting point was 162 to 164 °C.

Turning to `CC#CC(C)(C)NC(=O)C(CC)Oc1cncc(Br)c1` (single isomer, unassigned; (-)) [(−) isomer of Compound 13 of Table 1, (−) 2-(5-bromo-3-pyridyloxy)-N-(4-methylpent-2-yn-4-yl)butyramide], in the data set on Phytophthora infestans, the pest or weed control at 200 ppm is at least 70%.

Molecule `CCC#CC(C)(C)NC(=O)C(CC)Oc1cncc(Cl)c1` (centres unmarked) [Compound No. 1 of Table 1, 2-(5-chloro-3-pyridyloxy)N-(2-methylhex-3-yn-2-yl)butyramide] came in with a pest or weed control at 200 ppm with Plasmopara viticola (setting [1]) of at least 70%.

For `CC#CC(C)(C)NC(=O)C(CCC)Oc1cncc(Cl)c1` (centres unmarked) [Compound No. 3 of Table 1, 2-(5chloro-3-pyridyloxy)-N-(2-methylpent-3-yn-2-yl)valeramide], the pest or weed control at 200 ppm with Plasmopara viticola (setting [1]) and in the data set on Phytophthora infestans was at least 70% each time.

In the data set with Plasmopara viticola (setting [1]), `CC#CC(C)(C)NC(=O)C(CC)Oc1cncc(Cl)c1` (centres unmarked) [Compound No. 8 of Table 1, 2-(5-chloro-3-pyridyloxy)-N-(2-methylpent-3-yn-2-yl)butyramide] showed a pest or weed control at 200 ppm of at least 70%.

As to `CC#CC(C)(C)N(C)C(=O)C(CC)Oc1cncc(Cl)c1` (centres unmarked) [Compound No. 10 of Table 1, 2-(5-chloro-3-pyridyloxy)-N-methyl-N-(2-methylpent-3-yn-2-yl)butyramide], in the data set with Plasmopara viticola (setting [1]), the pest or weed control at 200 ppm is at least 70%.

`CC#CC(C)(C)NC(=O)Cc1ccccc1Oc1cncc(Cl)c1` [Compound No. 11 of Table 1, 2-(5-chloro-3-pyridyloxy)-N-(2-methylpent-3-yn-2-yl)phenylacetamide]: in the data set with Phytophthora infestans, the pest or weed control at 200 ppm is at least 70%.

For the molecule `CC#CC(C)(C)NC(=O)C(CC)Oc1cncc(Br)c1` (centres unmarked) [Compound No. 13 of Table 1, 2-(5-bromo-3-pyridyloxy)-N-(2-methylpent-3-yn-2-yl)butyramide], the pest or weed control at 200 ppm in the data set on Plasmopara viticola (setting [1]) was at least 70%.

With `CCC#CC(C)(C)NC(=O)C(CC)Oc1cncc(Br)c1` (centres unmarked) [Compound No. 14 of Table 1, 2-(5-bromo-3-pyridyloxy)-N-(2-methylhex-3-yn-2-yl)butyramide], the pest or weed control at 200 ppm in the data set on Plasmopara viticola (setting [1]) is at least 70%.

For `CCC#CC(C)(C)NC(=O)C(CC)Oc1cncc(C(=O)N(C(C)C)C(C)C)c1` (centres unmarked) [Compound No. 15 of Table 1, 2-(5-(N,N-diisopropylaminocarbonyl)-3-pyridyloxy)-N-(5-methylhex-3-yn-5-yl)butyramide], the pest or weed control at 200 ppm with Plasmopara viticola (setting [1]) and with Phytophthora infestans was at least 70% each time.

In the data set on Plasmopara viticola, `CC#CC(C)(C)NC(=O)C(COC)Oc1cncc(Cl)c1` (centres unmarked) [Compound No. 21 of Table 1, 2-(5-chloro-3-pyridyloxy)-N-(4-methylpent-2-yn-4-yl)-3-methoxypropionamide] displayed a pest or weed control at 200 ppm of at least 70%.

Turning to `CCC(Oc1cncc(Cl)c1)C(=O)NC(C#CC(C)C)OC` (centres unmarked) [Compound No. 49 of Table 1, 2-(5-chloro-3-pyridyloxy)-N-(1-methoxy-4-methylpent-2-ynyl)butyramide], the pest or weed control at 200 ppm in the data set on Plasmopara viticola was at least 70%.

In turn, `CCCC#CC(C)(C)NC(=O)C(CC)Oc1cncc(Cl)c1` (centres unmarked) [Compound No. 120 of Table 1, 2-(5-chloro-3-pyridyloxy)-N-(6-methylhept-4-yn-6-yl)butyramide] gave a melting point of 70 to 71 °C. The molecule also showed a pest or weed control at 200 ppm with Plasmopara viticola (setting [1]) of at least 70%.

Turning to `CCCC#CC(C)(C)NC(=O)C(CC)Oc1cncc(Br)c1` (centres unmarked) [Compound No. 128 of Table 1, 2-(5-bromo-3-pyridyloxy)-N-(6-methylhept4-yn-6-yl)butyramide], the pest or weed control at 200 ppm in the data set with Plasmopara viticola (setting [1]) and in the data set with Phytophthora infestans was at least 70% each time.

As to `CC#CC(C)(CC)NC(=O)C(CC)Oc1cncc(Cl)c1` (centres unmarked) [Compound No. 136 of Table 1, 2-(5chloro-3-pyridyloxy)-N-(4methylhex-2-yn-4-yl)butyramide], in the data set with Plasmopara viticola (setting [1]), the pest or weed control at 200 ppm was at least 70%.

Molecule `CC#CC(C)(C)NC(=O)C(CC)Oc1cnc(Cl)c(Cl)c1` (centres unmarked) [Compound No. 247 of Table 1, 2-(5,6-dichloro-3-pyridyloxy)-N-(4-methylpent-2-yn-4-yl)butyramide] yielded a pest or weed control at 200 ppm with Plasmopara viticola of at least 70%.

As for `CCC(Oc1cnc(Cl)c(Cl)c1)C(=O)NC(C)(C)C#CCOC` (centres unmarked) [Compound No. 259 of Table 1, 2-(5,6-dichloro-3-pyridyloxy)-N-(1-methoxy-4-methylpent-2-yn-4-yl)butyramide], in the data set on Plasmopara viticola, the pest or weed control at 200 ppm was at least 70%.

As for `CC#CC(C)(C)NC(=O)C(CC)Oc1cncc(Oc2ccccc2)c1SC` (centres unmarked) [Compound No. 263 of Table 1, 2-(4-methylthio-5-phenoxy-3-pyridyloxy)-N-(4-methylpent-2-yn-4-yl)butyramide], the pest or weed control at 200 ppm in the data set with Plasmopara viticola and with Phytophthora infestans was at least 70% in each case.

As to `CC#CC(C)(C)NC(=O)C(CC)Oc1cncc(C(C)=O)c1` (centres unmarked) [Compound No. 326 of Table 1, 2-(5-acetyl-3-pyridyloxy)-N-(4-methylpent-2-yn-4-yl)butyramide], the pest or weed control at 200 ppm in the data set with Phytophthora infestans was at least 70%.

In the case of `CC#CC(C)(C)NC(=O)C(CC)Oc1cncc(C#N)c1` (centres unmarked) [Compound No. 342 of Table 1, 2-(5-cyano-3-pyridyloxy)-N-(4-methylpent-2-yn-4-yl)butyramide], the pest or weed control at 200 ppm in the data set on Plasmopara viticola and in the data set with Phytophthora infestans was at least 70% throughout.

In turn, `C#Cc1cncc(OC(CC)C(=O)NC(C)(C)C#CC)c1` (centres unmarked) [Compound No. 358 of Table 1, 2-(5-ethynyl-3-pyridyloxy)-N-(4-methylpent-2-yn-4-yl)butyramide] came in with a pest or weed control at 200 ppm with Plasmopara viticola of at least 70%.

For the molecule `C=Cc1cncc(OC(CC)C(=O)NC(C)(C)C#CC)c1` (centres unmarked) [Compound No. 374 of Table 1, 2-(5-ethenyl-3-pyridyloxy)-N-(4-methylpent-2-yn-4-yl)butyramide], in the data set with Phytophthora infestans, the pest or weed control at 200 ppm is at least 70%.

Regarding `C=C(OCC)c1cncc(OC(CC)C(=O)NC(C)(C)C#CC)c1` (centres unmarked) [Compound No. 378 of Table 1, 2-[5-(1-ethoxyethen-1-yl)-3-pyridyloxy]-N-(4-methylpent-2-yn-4-yl)butyramide], in the data set with Phytophthora infestans, the pest or weed control at 200 ppm is at least 70%.
